Data reported in patent US11260053B2, “Bile acid recycling inhibitors and satiogens for treatment of diabetes, obesity, and inflammatory gastrointestinal conditions” (Satiogen Pharmaceuticals, Inc., priority 2010, dated 2022).
Where two headings read alike, the source gives them in different places.

How the values were obtained:
GLP-1 = assay: Plasma GLP-1 levels in normal rats after oral dosing (Example 8); type: in vivo
Experimental: 12-week-old male HSD rats were fasted for 16 h and given oral dose of 0, 3, 30, 100 mg/kg of the ASBTI 1-[4-[4-[(4R,5R)-3,3-dibutyl-7-(dimethylamino)-2,3,4,5-tetrahydro-4-hydroxy-1,1-dioxido-1-benzothiepin-5-yl]phenoxy]butyl]4-aza-1-azoniabicyclo[2.2.2]octane methane sulfonate (Synthesized by Nanosyn Inc., CA, USA) or metformin (Control, 0, 3, 30, 100, 300 mg/kg) in saline and a dose of 30 mg/kg sitaglipin in a mixture of valine-pyrrolidine in water (n=5 per group). Blood samples in volume of 0.6 ml for each time point were taken from the caudal vein with a heparinized capillary tube 0, 1, 3 and 5 h after the administration of compounds and plasma GLP-1 level were determined. Aprotinin and 10 μl of DPP-IV inhibitor per ml of blood were used for blood sample preservation during 10 min centrifugation and for storage at −70° C. or below. GLP-1 (Active pM) was tested by Millipore ELISA Kits (Millipore Corporation, 290 Concord Road, Billerica, Mass.).

male db/db mice [1] = assay: In vivo assay for reduction in blood glucose levels (Example 7B); settings: for reduction in plasma glucose from baseline: after 6 hours, oral, male db/db mice
Experimental: Male db/db mice 8-9 weeks (approx 40 g) were fasted for 2 h. […] Blood sample (˜1 μl from tail for glucose level testing) was taken at t=−24 h, 0, 1, 3, 4, 5, 6 h and 24 h after administration.

diabetic db/db mice = assay: Oral ASBTI with DPP-IV inhibitor versus subcutaneous exenatide, blood glucose (Example 9); type: in vivo
male db/db mice [2] = assay: In vivo assay for reduction in blood glucose levels (Example 7A); settings: for reduction in plasma glucose from baseline: after 6 hours, oral
Experimental: Male db/db mice 6-7 weeks (approx 30 g) were fasted for 2 h. A combination of (−)-(3R,5R)-trans-3-butyl-3-ethyl-2,3,4,5-tetrahydro-7,8-dimethoxy-5-phenyl-1,4-benzothiazepine1,1-dioxide (Compound 100A) at doses of 0, 0.1, 1, 10, mg/kg in 10% of DMSO-water and 30 mg/kg sitagliptin (DPP-IV inhibitor) in a mixture of valine-pyrrolidine in water was administered orally to male db/db mice (n=7-10 per group). Blood sample (˜1 μl from tail for glucose level testing) was taken at t=−24 h, 0, 60, 180, 240, 300, 360 min and 24 h after administration.

Sprague Dawley rats [3] = system: Sprague Dawley rats
Experimental: Using a stainless steel dissolving vessel fitted with a propeller stirrer 1 gram of methyl cellulose is dissolved in 100 mL of purified water and stirred for 15 minutes. 12 syringes connected to gavage tubes are then each filled with 3 mL of the composition.
A 4×4 Latin Square design is used to monitor the effect of the different concentration of taurocholate on the food uptake of overnight-fasted Sprague Dawley rats. Each concentration is tested in triplicate with four rats used per replicate.
The ED50 for inhibition of food intake is obtained by plotting the normalizing the dose response for the anorectic effect of taurocholate to the control data as a log of taurocholate dose vs the percentage of control cumulative intake (FIG. 7).

obese diabetic humans = settings: rectal 0.66, 2.0, 6.66, 20.0 mmoles in 20 ml 1% carboxymethyl cellulose gel, after 100 mg sitagliptin
Experimental: Studies were undertaken after an overnight fast following administration (8-10 hours prior to bile salt) of 100 mg sitagliptin, a DPP-4 inhibitor that protects GLP-1 from inactivation by proteolysis. […] The taurocholic acid was administered into the rectum by syringe in a total volume of 20 ml of 1% carboxymethyl cellulose gel. Each dose was administered on a different day with at least three days between doses.

Sprague Dawley rats [4] = settings: 500 mM sodium taurocholate gel, 3 mL per rectum, overnight-fasted rats, 6 hour period
Experimental: Using a stainless steel dissolving vessel fitted with a propeller stirrer 1 gram of methyl cellulose is dissolved in 100 mL of purified water and stirred for 15 minutes. 5 syringes connected to gavage tubes are then each filled with 3 mL of the composition.
The sodium taurocholate rectal gel described above was rectally administered to 6 conscious overnight-fasted subjects (e.g., Sprague Dawley rats) and the control rectal gel without the sodium taurocholate was rectally administered to 5 conscious overnight-fasted subjects (e.g., Sprague Dawley rats). Each rat was then exposed to pre-weighed food and the cumulative consumption of the food was determined over a 6 hour period by weighing the food after 30 minutes, 60 minutes, 120 minutes, 240 minutes and 360 minutes.

Compound: CCCCC1(CCCC)CS(=O)(=O)c2ccc(N(C)C)cc2[C@@H](c2ccc(OCCCC[N+]34CCN(CC3)CC4)cc2)[C@H]1O.CS(=O)(=O)[O-] [Compound 100B, 1-[4-[4-[(4R,5R)-3,3-dibutyl-7-(dimethylamino)-2,3,4,5-tetrahydro-4-hydroxy-1,1-dioxido-1-benzothiepin-5-yl]phenoxy]butyl]4-aza-1-azoniabicyclo[2.2.2]octane methane sulfonate salt]
- plasma GLP-1 levels (GLP-1; ASBTI alone, oral 0, 3, 30, 100 mg/kg, FIG. 6, FIG. 7): elevation in GLP-1 levels in a dose-dependent manner
- plasma GLP-1 levels (GLP-1; ASBTI in combination with 30 mg/kg sitagliptin, oral, FIG. 6, FIG. 7): elevation in GLP-1 levels in a dose-dependent manner
- change in body weight (male db/db mice [1]; 24 h after administration, in combination with sitagliptin, FIG. 8): Weight loss
- plasma glucose levels (male db/db mice [1]; ASBTI alone, db/db mice, FIG. 4): lowers plasma glucose levels in dose dependent manner
- reduction in plasma glucose from baseline (male db/db mice [1]; dose 3 mg/kg with 30 mg/kg sitagliptin): 5.6%
- reduction in plasma glucose from baseline (male db/db mice [1]; dose 30 mg/kg with 30 mg/kg sitagliptin): 15%
- reduction in plasma glucose from baseline (male db/db mice [1]; dose 100 mg/kg with 30 mg/kg sitagliptin): 42.3%
- elevated blood glucose levels compared to control mice treated with sitagliptin alone or vehicle (male db/db mice [1]; single oral administration in combination with 30 mg/kg sitagliptin, FIG. 2): dose-dependent reduction
- blood glucose levels compared with exenatide (diabetic db/db mice; 3 hours after dosing, oral, in combination with 30 mg/kg sitagliptin, FIG. 10): reduces blood glucose levels more than a single subcutaneous injection of 0.02 mg/kg exenatide

Compound: CCCC[C@]1(CC)CS(=O)(=O)c2cc(OC)c(OC)cc2[C@@H](c2ccccc2)N1 (relative stereo) [Compound 100A, (−)-(3R,5R)-trans-3-butyl-3-ethyl-2,3,4,5-tetrahydro-7,8-dimethoxy-5-phenyl-1,4-benzothiazepine1,1-dioxide]
- change in body weight (male db/db mice [2]; 24 h after administration, FIG. 9): Weight loss
- plasma glucose concentrations (male db/db mice [2]; ASBTI alone, male db/db mice, FIG. 1): lowers plasma glucose concentrations
- reduction in plasma glucose from baseline (male db/db mice [2]; dose 01 mg/kg (so in the source) with 30 mg/kg sitagliptin, male db/db mice): 5.6%
- reduction in plasma glucose from baseline (male db/db mice [2]; dose 1 mg/kg with 30 mg/kg sitagliptin, male db/db mice): 15%
- reduction in plasma glucose from baseline (male db/db mice [2]; dose 10 mg/kg with 30 mg/kg sitagliptin, male db/db mice): 42.3%
- elevated blood glucose levels compared to control mice treated with sitagliptin alone or vehicle (male db/db mice [2]; single oral administration in combination with 30 mg/kg sitagliptin, FIG. 1): dose-dependent reduction
- reduction of plasma glucose levels (diabetic db/db mice; 3 hours post-dose, oral 10 mg/kg in combination with 30 mg/kg sitagliptin): 35%

Compound: C[C@H](CCC(=O)NCCS(=O)(=O)O)[C@H]1CC[C@H]2[C@@H]3[C@H](O)C[C@@H]4C[C@H](O)CC[C@]4(C)[C@H]3C[C@H](O)[C@]12C [taurocholate, taurocholic acid]
- cumulative food intake (Sprague Dawley rats [3]; 50, 150, 500 mM taurocholate gels, 3 mL per rectum, overnight-fasted rats): dose dependently related to the quantity of taurocholate administered
- ED50 for inhibition of food intake (Sprague Dawley rats [3]; 24 hour intake): 7.2 mmol/rat
- ED50 for inhibition of food intake (Sprague Dawley rats [3]; at 1 hour): 1.6 mmol/rat
- ED50 for inhibition of food intake (Sprague Dawley rats [3]; at 1 hour, 3 mL doses per rectum): 528 mM
- time for which differences in food uptake are maintained (Sprague Dawley rats [3]; rectal taurocholate gels, rats): at least 24 hours
- circulating GLP-1 levels (obese diabetic humans): increase
- circulating PYY levels (obese diabetic humans): increase
- cumulative food intake compared to gel alone (Sprague Dawley rats [4]): reduced

Compound: CN(C)C(=N)N=C(N)N [metformin, reference compound]
- plasma GLP-1 levels (GLP-1; metformin in combination with 30 mg/kg sitagliptin, oral, FIG. 5): elevation in GLP-1 levels

Compound: N[C@@H](CC(=O)N1CCn2c(nnc2C(F)(F)F)C1)Cc1cc(F)c(F)cc1F [sitagliptin, (3R)-3-amino-1-[9-(trifluoromethyl)-1,4,7,8-tetrazabicyclo[4.3.0]nona-6,8-dien-4-yl]-4-(2,4,5-trifluorophenyl)butan-1-one, reference compound]
- reduction in plasma glucose from baseline (male db/db mice [2]; dose 0 mg/kg of ASBTI with 30 mg/kg sitagliptin, male db/db mice): 5.5%
- reduction in plasma glucose from baseline (male db/db mice [1]; dose 0 mg/kg of ASBTI with 30 mg/kg sitagliptin): 5.5%
